Among the data in ChEMBL document CHEMBL1159187, “Novel polyamine derivatives as potent competitive inhibitors of Trypanosoma cruzi trypanothione reductase” (Bioorg Med Chem Lett, 1995) are Ki and Activity values, retold here.

For one experiment, the target named is Trypanothione reductase (Trypanosoma cruzi, UniProt P28593). Kind of experiment: Compound was evaluated for the competitive inhibition of trypanothione reduction by recombinant Trypanothione reductase from Trypanosoma cruzi.
Experiment [1] addresses Glutathione reductase (Saccharomyces cerevisiae) (UniProt P41921). Kind of experiment: Compound was evaluated for the competitive inhibition of glutathione reductase from yeast; No inhibition.

A word on the Ki: it is the dissociation constant of the complex between target and ligand, obtained from inhibition or displacement.

Active and inactive are the calls of the source. The calls are words filed in the database; no cut-off is given here.

Sequence of Trypanothione reductase (P28593 whole entry): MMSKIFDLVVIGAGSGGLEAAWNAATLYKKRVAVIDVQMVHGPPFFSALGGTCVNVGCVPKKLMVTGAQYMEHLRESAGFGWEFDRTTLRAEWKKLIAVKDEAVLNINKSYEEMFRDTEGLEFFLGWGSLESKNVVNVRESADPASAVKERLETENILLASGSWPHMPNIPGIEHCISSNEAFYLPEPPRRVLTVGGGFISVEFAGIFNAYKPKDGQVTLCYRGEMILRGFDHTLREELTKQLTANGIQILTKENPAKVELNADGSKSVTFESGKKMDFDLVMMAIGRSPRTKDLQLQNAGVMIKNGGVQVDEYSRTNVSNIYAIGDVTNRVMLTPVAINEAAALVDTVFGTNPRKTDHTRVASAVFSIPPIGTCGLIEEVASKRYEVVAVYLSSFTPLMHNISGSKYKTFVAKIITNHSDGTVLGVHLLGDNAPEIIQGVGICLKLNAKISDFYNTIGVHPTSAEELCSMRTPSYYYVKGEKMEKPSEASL
Sequence of Glutathione reductase (Saccharomyces cerevisiae) (P41921 whole entry, looked up): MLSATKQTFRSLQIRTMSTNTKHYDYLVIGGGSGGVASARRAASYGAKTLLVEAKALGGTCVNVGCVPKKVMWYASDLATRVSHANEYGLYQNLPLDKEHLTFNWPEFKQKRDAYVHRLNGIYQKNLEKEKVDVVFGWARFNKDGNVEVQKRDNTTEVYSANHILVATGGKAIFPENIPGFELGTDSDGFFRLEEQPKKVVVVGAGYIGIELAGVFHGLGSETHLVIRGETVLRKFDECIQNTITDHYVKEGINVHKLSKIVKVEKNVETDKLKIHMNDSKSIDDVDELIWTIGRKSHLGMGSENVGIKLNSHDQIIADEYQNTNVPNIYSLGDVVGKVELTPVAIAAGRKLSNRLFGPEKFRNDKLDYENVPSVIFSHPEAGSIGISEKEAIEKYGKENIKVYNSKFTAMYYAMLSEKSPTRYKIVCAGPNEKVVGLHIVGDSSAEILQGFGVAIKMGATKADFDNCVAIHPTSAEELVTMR

Take `NCCCCN(CCCN)Cc1ccc2ccccc2c1`: the Ki on Trypanothione reductase came to 108 µM.

For `NCCCN(CCCCN(CCCN)CCCc1ccccc1)CCCc1ccccc1`, the Ki at Trypanothione reductase was found to be 3.5 µM. Also, the outcome in experiment [1] was inactive.

`NCCCN(CCCCN(CCCN)Cc1ccc2ccccc2c1)Cc1ccc2ccccc2c1`: the Ki at Trypanothione reductase came out at 5.5 µM. Further, in experiment [1], the outcome was inactive.

For the compound `NCCCCN(CCCN)C(=O)OCc1ccccc1`, on Trypanothione reductase, the Ki was 280 µM.

For the compound `O=C(NCCCCNCCCNC(=O)c1ccccc1)c1ccccc1`, on Trypanothione reductase, the Ki was above 2000 µM.

`c1ccc2cc(CNCCCCNCCCNCc3ccc4ccccc4c3)ccc2c1`: the inhibition constant (Ki) at Trypanothione reductase worked out at 9.5 µM. Moreover, in experiment [1], the outcome was inactive.

On to `NCCCN(CCCCN(CCCN)Cc1ccccc1)Cc1ccccc1`, for which the Ki on Trypanothione reductase turned out to be 19 µM.
